Assay results taken from ChEMBL document CHEMBL5543121, “Drug Repurposing of ACT001 to Discover Novel Promising Sulfide Prodrugs with Improved Safety and Potent Activity for Neutrophil-Mediated Antifungal Immunotherapy” (J Med Chem, 2024).
Activity calls are given as the source filed them. The calls are words filed in the database; no cut-off is given here.

Experiments:
[1] = Therapeutic index, ratio of IC50 for cytotoxicity against mouse neutrophils to IC50 for inhibition of fungal curdlan induced PD-L1 expression in mouse neutrophils; type: toxicity; settings: read-out: Ratio IC50
[2] = Subacute toxicity in C57BL/6 mouse assessed as abnormal behavior at 100 mg/kg, po administered daily for 14 days and measured every day; type: organism-based; settings: in vivo, 336 h, time 14 day
[3] = Subacute toxicity in C57BL/6 mouse assessed as change in lung weight at 100 mg/kg, po administered daily for 14 days; type: organism-based; settings: in vivo, 336 h, time 14 day
Neutrophil [4] = assay: Downregulation of phosphorylated STAT3 protein level at Ser727 residue in curdlan induced mouse bone marrow neutrophils at 40 uM measured upto 60 mins by Western blot analysis; type: functional, cell-based
Neutrophil [5] = assay: Potency index, ratio of ACT001 IC50 to test compound IC50 for inhibition of fungal curdlan induced PD-L1 expression in mouse neutrophils assessed as reduction in PD-L1 positive Ly6G positive neutrophils incubated for 16 hrs by flow cytometry analysis; type: functional
Neutrophil [6] = assay: Induction of apoptosis in mouse neutrophils assessed as early apoptotic cells at 40 uM incubated for 16 hrs by Annexin V-FITC/PI staining based flow cytometry analysis (reference value: 26.9%); type: toxicity, cell-based
[7] = Subacute toxicity in C57BL/6 mouse assessed as animal death at 100 mg/kg, po administered daily for 14 days and measured every day; type: organism-based; settings: in vivo, 336 h, time 14 day
[8] = Subacute toxicity in C57BL/6 mouse assessed as effect on urea level in serum at 100 mg/kg, po administered daily for 14 days and measured every day; type: organism-based; settings: in vivo, 336 h, time 14 day
[9] = MRT (0 to t) in male Sprague-Dawley rat at 10 mg/kg, po by LC-MS/MS analysis; type: ADME, organism-based; settings: in vivo
Candida albicans [10] = assay: Induction of neutrophil-mediated antifungal immunity against Candida albicans SC5314 infected in mouse assessed as inhibition of CXCL1 protein expression in bone marrow at 50 to 100 mg/kg, po administered once a day for 3 days by ELISA; type: functional, organism-based; settings: dose 50-100 mg/kg, time 3.0 day
[11] = Subacute toxicity in C57BL/6 mouse assessed as effect on AST level in serum at 100 mg/kg, po administered daily for 14 days and measured every day; type: organism-based; settings: in vivo, 336 h, time 14 day
[12] = Acute toxicity in C57BL/6 mouse assessed as change in heart weight at 500 mg/kg, po administered as single dose and measured after 14 days; type: organism-based; settings: in vivo, 336 h, time 14 day
[13] = Inhibition of fungal curdlan induced PD-L1 expression in mouse neutrophils at 40 uM relative to control; type: functional, Neutrophil; settings: Mus musculus, Neutrophil
[14] = MRT (0 to t) in male Sprague-Dawley rat at 2 mg/kg, iv by LC-MS/MS analysis; type: ADME, organism-based; settings: in vivo
[15] = Tmax in male Sprague-Dawley rat at 2 mg/kg, iv by LC-MS/MS analysis; type: ADME, organism-based; settings: in vivo
Candida albicans [16] = assay: Induction of neutrophil-mediated antifungal immunity against Candida albicans SC5314 infected in mouse assessed as reduction in accumulation of Ly6G positive neutrophils in bone marrow at 50 to 100 mg/kg, po administered once a day for 3 days; type: functional, organism-based; settings: dose 50-100 mg/kg, time 3.0 day
Neutrophil [17] = assay: Induction of apoptosis in mouse neutrophils assessed as dead cells at 20 uM incubated for 16 hrs by Annexin V-FITC/PI staining based flow cytometry analysis (reference value: 2.04%); type: toxicity, cell-based
[18] = Acute toxicity in C57BL/6 mouse assessed as signs of morbidity at 500 mg/kg, po administered as single dose and measured every day for 14 days; type: organism-based; settings: in vivo, 336 h, time 14 day
Candida albicans [19] = assay: Induction of neutrophil-mediated antifungal immunity against Candida albicans SC5314 infected in mouse assessed as increase in animal survival rate at 50 to 100 mg/kg, po administered once a day for 3 days; type: functional, organism-based; settings: dose 50-100 mg/kg, time 3.0 day
[20] = Acute toxicity in C57BL/6 mouse assessed as change in spleen weight at 500 mg/kg, po administered as single dose and measured after 14 days; type: organism-based; settings: in vivo, 336 h, time 14 day
[21] = Tmax in male Sprague-Dawley rat at 10 mg/kg, po by LC-MS/MS analysis; type: ADME, organism-based; settings: in vivo
[22] = Acute toxicity in C57BL/6 mouse assessed as histopathological changes in heart at 500 mg/kg, po administered as single dose and measured after 14 days; type: organism-based; settings: in vivo, 336 h, time 14 day
Neutrophil [23] = assay: Induction of apoptosis in mouse neutrophils assessed as early apoptotic cells at 20 uM incubated for 16 hrs by Annexin V-FITC/PI staining based flow cytometry analysis (reference value: 26.9%); type: toxicity, cell-based
[24] = Potency index, ratio of test compound IC50 to ACT001 IC50 for cytotoxicity against mouse neutrophils assessed as reduction in cell viability incubated for 16 hrs by flow cytometry analysis; type: toxicity, cell-based, Neutrophil; settings: read-out: Ratio IC50
[25] = Cytotoxicity against mouse neutrophils assessed as cell viability at 40 uM relative to control; type: toxicity, cell-based, Neutrophil; settings: mouse neutrophils, read-out: Activity
Candida albicans [26] = assay: Antifungal activity against Candida albicans SC5314 assessed as inhibition of fungal growth at 0.25 to 128 ug/ml measured every 3 hrs for 24 hrs by absorbance based analysis; type: functional, organism-based; settings: dose 0.25-128 µg/ml
[27] = Acute toxicity in C57BL/6 mouse assessed as effect on AST level in serum at 500 mg/kg, po administered as single dose and measured every day for 14 days; type: organism-based; settings: in vivo, 336 h, time 14 day
[28] = Initial plasma concentration in male Sprague-Dawley rat at 2 mg/kg, iv by LC-MS/MS analysis; type: ADME, organism-based
[29] = Half life in male Sprague-Dawley rat at 10 mg/kg, po by LC-MS/MS analysis; type: ADME, organism-based; settings: in vivo
[30] = Acute toxicity in C57BL/6 mouse assessed as change in kidney weight at 500 mg/kg, po administered as single dose and measured after 14 days; type: organism-based; settings: in vivo, 336 h, time 14 day
[31] = Subacute toxicity in C57BL/6 mouse assessed as change in kidney weight at 100 mg/kg, po administered daily for 14 days; type: organism-based; settings: in vivo, 336 h, time 14 day
[32] = Subacute toxicity in C57BL/6 mouse assessed as body weight loss at 100 mg/kg, po administered daily for 14 days and measured every day; type: organism-based; settings: in vivo, 336 h, time 14 day
[33] = test system: Polymorphonuclear neutrophil; assay: Inhibition of fungal curdlan induced CXCL1 protein expression in mouse polymorphonuclear neutrophils at 40 uM incubated for 4 hrs by ELISA; type: functional, cell-based
Candida albicans [34] = assay: Antifungal activity against candida albicans SC5314 infected in mouse assessed as reduction in fungal burden in kidney at 200 mg/kg, po administered on day 1 and 3; type: functional, organism-based; settings: time 1-3 day
[35] = Subacute toxicity in C57BL/6 mouse assessed as change in spleen weight at 100 mg/kg, po administered daily for 14 days; type: organism-based; settings: in vivo, 336 h, time 14 day
[36] = Subacute toxicity in C57BL/6 mouse assessed as signs of morbidity at 100 mg/kg, po administered daily for 14 days and measured every day; type: organism-based; settings: in vivo, 336 h, time 14 day
[37] = Subacute toxicity in C57BL/6 mouse assessed as change in heart weight at 100 mg/kg, po administered daily for 14 days; type: organism-based; settings: in vivo, 336 h, time 14 day
[38] = Clearance in male Sprague-Dawley rat at 2 mg/kg, iv by LC-MS/MS analysis; type: ADME, organism-based; settings: in vivo
Candida albicans [39] = assay: Induction of neutrophil-mediated antifungal immunity against Candida albicans SC5314 infected in mouse assessed as inhibition of CXCL2 protein expression in bone marrow at 50 to 100 mg/kg, po administered once a day for 3 days by ELISA; type: functional, organism-based; settings: dose 50-100 mg/kg, time 3.0 day

In the case of `C[C@@]1(O)CC[C@]23O[C@@]2(C)CC[C@@H]2[C@H](OC(=O)[C@H]2CS(=O)(=O)c2c(Cl)cccc2Cl)[C@@H]13`, the selectivity ratio [1] is reported as over 85.1, the Activity [2] is reported as “Non-Toxic” and the Activity [3] is reported as “Non-Toxic”. For the same compound, the Activity (Neutrophil [4]) was “Active”, the “Ratio IC50” value (Neutrophil [5]) was 4.46 and the Activity (Neutrophil [6]) was 28.5%. For the same compound, the Activity [7] was “Non-Toxic”, the Activity [8] was “Non-Toxic” and the MRT last [9] was 104 min. For the same compound, the Activity (Candida albicans [10]) was “Active”, the Activity [11] was “Non-Toxic” and the Activity [12] was “Non-Toxic”. It also gave an inhibition at 40 µM [13] of 80.2%, an MRT last [14] of 15 min and a Tmax [15] of 8.4 min. The Activity (Candida albicans [16]) was “Active”, the Activity (Neutrophil [17]) was 2.24% and the Activity [18] was “Non-Toxic”. For the same compound, the Activity (Candida albicans [19]) was “Active”, the Activity [20] was “Non-Toxic” and the Tmax [21] was 19.8 min. For the same compound, the Activity [22] was “Non-Toxic”, the Activity (Neutrophil [23]) was 29.3% and the selectivity ratio at 16 h [24] was 10.9. For the same compound, the viability at 40 µM [25] was 81.5%, the Activity (Candida albicans [26]) was “inactive” and the Activity [27] was “Non-Toxic”. The C0 [28] was 191 ng/mL, the half-life [29] was 87.6 min and the Activity [30] was “Non-Toxic”. The Activity [31] was “Non-Toxic”, the Activity [32] was “Non-Toxic” and the inhibition [33] was “Active”. The Activity (Candida albicans [34]) was “Active”, the Activity [35] was “Non-Toxic” and the Activity [36] was “Non-Toxic”. For the same compound, the Activity [37] was “Non-Toxic”, the clearance [38] was 453 mL/min/kg and the Activity (Candida albicans [39]) was “Active”.
